Measurements taken from patent publication EP0908457B1, “3-(1,2-benzisothiazol- and isoxazol-5-Y1)-2,4(1H,3H)-pyrimidinedione or thione and 3-(1,2-benzisothiazol- and isoxazol-5-y1)-4(3H)-pyrimidinone or thione herbicidal agents” (BASF AKTIENGESELLSCHAFT, priority 1997, dated 1999).
Where two headings read alike, the source gives them in different places.

Tests used:
[1] = test system: Cyperus serotinus, Rottb.; experiment: Preemergence weed control under flooded paddy conditions, CYPSE (Flatsedge); assay type: in vivo; conditions: preemergence; note: meaning of each grade not given here
[2] = test system: Cyperus iria; experiment: Preemergence weed control under flooded paddy conditions, CYPIR (Rice Flatsedge); assay type: in vivo; conditions: preemergence, flooded paddy; note: meaning of each grade not given here
[3] = test system: Monochoria vaginalis, Presl.; experiment: Preemergence weed control under flooded paddy conditions, MOOVA (Monochoria); assay type: in vivo; conditions: preemergence, flooded paddy; note: meaning of each grade not given here
[4] = test system: Oryza sativa, (L.) Tebonnet; conditions: in vivo
[5] = test system: Sagittaria pygmaea, L.; experiment: Preemergence weed control under flooded paddy conditions, SAGPY (Arrowhead (Pygmaea)); assay type: in vivo; conditions: preemergence, flooded paddy; note: meaning of each grade not given here
[6] = test system: Echinochloa oryzoides (Ard.) Fritsch.; experiment: Preemergence weed control under flooded paddy conditions, ECHORC (Watergrass (Calif.)); assay type: in vivo; conditions: preemergence, flooded paddy; note: meaning of each grade not given here
[7] = test system: Sagittaria pygmaea, L.; experiment: Postemergence weed control under flooded paddy conditions, SAGPY (Arrowhead (Pygmaea)); assay type: in vivo; conditions: rated three to four weeks after treatment
[8] = test system: Monochoria vaginalis, Presl.; experiment: Postemergence weed control under flooded paddy conditions, MOOVA (Monochoria); assay type: in vivo; conditions: rated three to four weeks after treatment
[9] = test system: Echinochloa oryzoides (Ard.) Fritsch.; experiment: Postemergence weed control under flooded paddy conditions, ECHORC (Watergrass (Calif.)); assay type: in vivo; conditions: rated three to four weeks after treatment
[10] = test system: Cyperus serotinus, Rottb.; experiment: Postemergence weed control under flooded paddy conditions, CYPSE (Flatsedge); assay type: in vivo; conditions: rated three to four weeks after treatment
[11] = test system: Oryza sativa, (L.) Tebonnet; experiment: Rice tolerance to post-transplant applications under flooded paddy conditions (Example 188), ORYSAT (Rice, Tebonnet); conditions: rated three to four weeks after treatment
[12] = test system: Cyperus iria; experiment: Postemergence weed control under flooded paddy conditions, CYPIR (Rice Flatsedge); assay type: in vivo; conditions: rated three to four weeks after treatment
[13] = test system: Oryza sativa, (L.) Tebonnet; experiment: Rice tolerance to post-transplant applications under flooded paddy conditions (Example 187), ORYSAT (Rice, Tebonnet); conditions: rated 3-4 weeks after treatment; for herbicidal effect rating ORYSAT: meaning of each grade not given here
[14] = 0.0313 kg/ha, rated three to four weeks after treatment
[15] = 0.0625 kg/ha, rated three to four weeks after treatment
[16] = 0.1250 kg/ha, rated three to four weeks after treatment
[17] = 0.2500 kg/ha, rated three to four weeks after treatment
[18] = Rate 0.0320 kg/ha, rated 3-4 weeks after treatment
[19] = Rate 0.0620 kg/ha, rated 3-4 weeks after treatment
[20] = Rate 0.1250 kg/ha, rated 3-4 weeks after treatment
[21] = Rate 0.2500 kg/ha, rated 3-4 weeks after treatment

Molecule: 1-Methyl-3-(2-methyl-3-oxo-1,2-benzisoxazolin-5-yl)-6-(trifluoromethyl)-2,4(1H,3H)-pyrimidinedione [Example 44]
- herbicidal effect rating, CYPSE [1, 14]: 0.0
- herbicidal effect rating, CYPSE [1, 15]: 0.0
- herbicidal effect rating, CYPSE [1, 16]: 0.0
- herbicidal effect rating, CYPSE [1, 17]: 0.0
- herbicidal effect rating, CYPIR [2, 14]: 0.0
- herbicidal effect rating, CYPIR [2, 15]: 0.0
- herbicidal effect rating, CYPIR [2, 16]: 0.0
- herbicidal effect rating, CYPIR [2, 17]: 0.0
- herbicidal effect rating, MOOVA [3, 14]: 0.0
- herbicidal effect rating, MOOVA [3, 15]: 0.0
- herbicidal effect rating, MOOVA [3, 16]: 0.0
- herbicidal effect rating, MOOVA [3, 17]: 0.0
- herbicidal effect rating, ORYSAT (rice tolerance) [4]: 0.0
- herbicidal effect rating, SAGPY [5, 14]: 0.0
- herbicidal effect rating, SAGPY [5, 15]: 0.0
- herbicidal effect rating, SAGPY [5, 16]: 0.0
- herbicidal effect rating, SAGPY [5, 17]: 0.0
- herbicidal effect rating, ECHORC [6, 14]: 0.0
- herbicidal effect rating, ECHORC [6, 15]: 0.0
- herbicidal effect rating, ECHORC [6, 16]: 0.0
- herbicidal effect rating, ECHORC [6, 17]: 0.0

Molecule: Cc1ccc(OCC(=O)OCC2(c3ccccc3)CC2)c(-c2nsc3ccc(-n4c(=O)cc(C(F)(F)F)n(C)c4=O)cc23)c1 [Example 517, Acetic acid, {{2-{5-[3,6-dihydro-3-methyl-2,6-dioxo-4-(trifluoromethyl)-1(2H)-pyrimidinyl]-1,2-benzisothiazol-3-yl}-p-tolyl}oxy}-, (1-phenylcyclopropyl)methyl ester]
- herbicidal effect rating, CYPSE [1, 18]: 3.0
- herbicidal effect rating, CYPSE [1, 19]: 4.5
- herbicidal effect rating, CYPSE [1, 20]: 4.5
- herbicidal effect rating, CYPSE [1, 21]: 0.0
- herbicidal effect rating, CYPIR [2, 18]: 5.5
- herbicidal effect rating, CYPIR [2, 19]: 6.5
- herbicidal effect rating, CYPIR [2, 20]: 5.5
- herbicidal effect rating, CYPIR [2, 21]: 7.0
- herbicidal effect rating, MOOVA [3, 18]: 9.0
- herbicidal effect rating, MOOVA [3, 19]: 9.0
- herbicidal effect rating, MOOVA [3, 20]: 9.0
- herbicidal effect rating, MOOVA [3, 21]: 9.0
- herbicidal effect rating, SAGPY ([7]; Rate 0.0320 kg/ha): 0.0
- herbicidal effect rating, SAGPY ([7]; Rate 0.0620 kg/ha): 0.0
- herbicidal effect rating, SAGPY ([7]; Rate 0.1250 kg/ha): 0.0
- herbicidal effect rating, SAGPY ([7]; Rate 0.2500 kg/ha): 0.0
- herbicidal effect rating, MOOVA ([8]; Rate 0.0320 kg/ha): 9.0
- herbicidal effect rating, MOOVA ([8]; Rate 0.0620 kg/ha): 9.0
- herbicidal effect rating, MOOVA ([8]; Rate 0.1250 kg/ha): 9.0
- herbicidal effect rating, MOOVA ([8]; Rate 0.2500 kg/ha): 9.0
- herbicidal effect rating, ECHORC ([9]; Rate 0.0320 kg/ha): 0.0
- herbicidal effect rating, ECHORC ([9]; Rate 0.0620 kg/ha): 0.0
- herbicidal effect rating, ECHORC ([9]; Rate 0.1250 kg/ha): 0.0
- herbicidal effect rating, ECHORC ([9]; Rate 0.2500 kg/ha): 0.0
- herbicidal effect rating, CYPSE ([10]; Rate 0.0320 kg/ha): 0.0
- herbicidal effect rating, CYPSE ([10]; Rate 0.0620 kg/ha): 0.0
- herbicidal effect rating, CYPSE ([10]; Rate 0.1250 kg/ha): 0.0
- herbicidal effect rating, CYPSE ([10]; Rate 0.2500 kg/ha): 0.0
- herbicidal effect rating, ORYSAT (rice tolerance) ([11]; Rate 0.0320 kg/ha): 0.0
- herbicidal effect rating, ORYSAT (rice tolerance) ([11]; Rate 0.0620 kg/ha): 0.0
- herbicidal effect rating, ORYSAT (rice tolerance) ([11]; Rate 0.1250 kg/ha): 0.0
- herbicidal effect rating, ORYSAT (rice tolerance) ([11]; Rate 0.2500 kg/ha): 0.0
- herbicidal effect rating, SAGPY [5, 18]: 0.0
- herbicidal effect rating, SAGPY [5, 19]: 0.0
- herbicidal effect rating, SAGPY [5, 20]: 0.0
- herbicidal effect rating, SAGPY [5, 21]: 0.0
- herbicidal effect rating, ECHORC [6, 18]: 9.0
- herbicidal effect rating, ECHORC [6, 19]: 9.0
- herbicidal effect rating, ECHORC [6, 20]: 8.0
- herbicidal effect rating, ECHORC [6, 21]: 9.0
- herbicidal effect rating, CYPIR ([12]; Rate 0.0320 kg/ha): 3.0
- herbicidal effect rating, CYPIR ([12]; Rate 0.0620 kg/ha): 5.0
- herbicidal effect rating, CYPIR ([12]; Rate 0.1250 kg/ha): 9.0
- herbicidal effect rating, CYPIR ([12]; Rate 0.2500 kg/ha): 9.0
- herbicidal effect rating ORYSAT ([13]; Rate 0.0320 kg/ha): 0.0
- herbicidal effect rating ORYSAT ([13]; Rate 0.0620 kg/ha): 0.0
- herbicidal effect rating ORYSAT ([13]; Rate 0.1250 kg/ha): 1.5
- herbicidal effect rating ORYSAT ([13]; Rate 0.2500 kg/ha): 3.0

Molecule: C#CCOC(=O)C(C)(C)Oc1ccc(C)cc1-c1nsc2ccc(-n3c(=O)cc(C(F)(F)F)n(C)c3=O)cc12 [Example 528, Propionic acid, 2-{{2-{5-[3,6-dihydro-3-methyl-2,6-dioxo-4-(trifluoromethyl)-1(2H)-pyrimidinyl]-1,2-benzisothiazol-3-yl}-p-tolyl}oxy}-2-methyl-, 2-propynyl ester]
- herbicidal effect rating, CYPSE [1, 18]: 0.0
- herbicidal effect rating, CYPSE [1, 19]: 0.0
- herbicidal effect rating, CYPSE [1, 20]: 0.0
- herbicidal effect rating, CYPSE [1, 21]: 0.0
- herbicidal effect rating, CYPIR [2, 18]: 4.5
- herbicidal effect rating, CYPIR [2, 19]: 5.0
- herbicidal effect rating, CYPIR [2, 20]: 5.0
- herbicidal effect rating, CYPIR [2, 21]: 9.0
- herbicidal effect rating, MOOVA [3, 18]: 9.0
- herbicidal effect rating, MOOVA [3, 19]: 9.0
- herbicidal effect rating, MOOVA [3, 20]: 9.0
- herbicidal effect rating, MOOVA [3, 21]: 9.0
- herbicidal effect rating, SAGPY ([7]; Rate 0.0320 kg/ha): 0.0
- herbicidal effect rating, SAGPY ([7]; Rate 0.0620 kg/ha): 0.0
- herbicidal effect rating, SAGPY ([7]; Rate 0.1250 kg/ha): 0.0
- herbicidal effect rating, SAGPY ([7]; Rate 0.2500 kg/ha): 3.0
- herbicidal effect rating, MOOVA ([8]; Rate 0.0320 kg/ha): 0.0
- herbicidal effect rating, MOOVA ([8]; Rate 0.0620 kg/ha): 0.0
- herbicidal effect rating, MOOVA ([8]; Rate 0.1250 kg/ha): 9.0
- herbicidal effect rating, MOOVA ([8]; Rate 0.2500 kg/ha): 9.0
- herbicidal effect rating, ECHORC ([9]; Rate 0.0320 kg/ha): 0.0
- herbicidal effect rating, ECHORC ([9]; Rate 0.0620 kg/ha): 7.0
- herbicidal effect rating, ECHORC ([9]; Rate 0.1250 kg/ha): 9.0
- herbicidal effect rating, ECHORC ([9]; Rate 0.2500 kg/ha): 9.0
- herbicidal effect rating, CYPSE ([10]; Rate 0.0320 kg/ha): 0.0
- herbicidal effect rating, CYPSE ([10]; Rate 0.0620 kg/ha): 0.0
- herbicidal effect rating, CYPSE ([10]; Rate 0.1250 kg/ha): 0.0
- herbicidal effect rating, CYPSE ([10]; Rate 0.2500 kg/ha): 9.0
- herbicidal effect rating, ORYSAT (rice tolerance) ([11]; Rate 0.0320 kg/ha): 0.0
- herbicidal effect rating, ORYSAT (rice tolerance) ([11]; Rate 0.0620 kg/ha): 0.0
- herbicidal effect rating, ORYSAT (rice tolerance) ([11]; Rate 0.1250 kg/ha): 2.0
- herbicidal effect rating, ORYSAT (rice tolerance) ([11]; Rate 0.2500 kg/ha): 3.0
- herbicidal effect rating, SAGPY [5, 18]: 1.0
- herbicidal effect rating, SAGPY [5, 19]: 0.0
- herbicidal effect rating, SAGPY [5, 20]: 1.5
- herbicidal effect rating, SAGPY [5, 21]: 3.0
- herbicidal effect rating, ECHORC [6, 18]: 9.0
- herbicidal effect rating, ECHORC [6, 19]: 9.0
- herbicidal effect rating, ECHORC [6, 20]: 9.0
- herbicidal effect rating, ECHORC [6, 21]: 9.0
- herbicidal effect rating, CYPIR ([12]; Rate 0.0320 kg/ha): 6.0
- herbicidal effect rating, CYPIR ([12]; Rate 0.0620 kg/ha): 6.0
- herbicidal effect rating, CYPIR ([12]; Rate 0.1250 kg/ha): 6.0
- herbicidal effect rating, CYPIR ([12]; Rate 0.2500 kg/ha): 6.0
- herbicidal effect rating ORYSAT ([13]; Rate 0.0320 kg/ha): 1.5
- herbicidal effect rating ORYSAT ([13]; Rate 0.0620 kg/ha): 3.5
- herbicidal effect rating ORYSAT ([13]; Rate 0.1250 kg/ha): 7.0
- herbicidal effect rating ORYSAT ([13]; Rate 0.2500 kg/ha): 9.0
